Measurements published in article PMC10635799, “Analogs of FTY720 inhibit TRPM7 but not S1PRs and exert multimodal anti-inflammatory effects” (The Journal of General Physiology, 2023).

How the values were obtained:
[1] = system: lymphocytes; set-up: method as in Brinkmann et al., 2002; Zhu et al., 2007; conditions: ref Brinkmann et al., 2002; Zhu et al., 2007; cited from earlier work
[2] = system: RAW 264.7 macrophages; test: LPS-induced inflammatory gene expression (qRT-PCR) in RAW 264.7 macrophages; format: cell-based; conditions: LPS 1 µg/ml for 3 h
Description: RAW 264.7 macrophages or BMDMs were seeded at a density of 250,000 cells per well into a 12-well tissue culture plate in 1 ml of media and left to incubate overnight. The indicated drug or vehicle control was added to each well, and the plate was agitated and left to incubate for 10 min. The cells were then treated with LPS (1 μg/ml) or an equivalent volume of PBS, agitated, and left to incubate for 3 h. Cells were washed with PBS and then RNA isolation was performed using RNeasy Plus Micro Kit (74134; Qiagen). cDNA was produced using GoScript Reverse Transcriptase ([…]; Promega) and a quantitative PCR was performed using SensiFast SYBR (98020; Bioline) and Bio-Rad CFX Connect thermocycler. Each datum represents an individual, biological replicate that is the mean of duplicate technical replicates. Fold-changes are all reported relative to untreated controls for each experiment and were calculated using the ΔΔCt method, with β2-microglobulin used as the housekeeping gene for each sample. The experiment was performed similarly with BV-2 microglia and alveolar macrophages, except that cells were plated at a density of 100,000 cells per well into a 24-well tissue culture plate with 1 ml of media per well.

[3] = system: LPS-induced endotoxemia in mice; test: Sublethal LPS-induced peritonitis (endotoxemia) mouse model; format: in vivo
Description: 12-wk-old WT C57BL/6J mice were purchased from Jackson Laboratory (Strain #000664). An equal number of male and female mice were randomly assigned to each treatment group. All studies were conducted according to a protocol approved by the University of Virginia Animal Care and Use Committee. Mice were socially housed with littermate controls and provided with free access to a standard chow diet and water. Baseline weights were taken <1 h prior to the experiment for individual dose calculations. For the sublethal model, mice were injected intraperitoneally with LPS (1 mg/kg), VPC01091.4 (30 mg/kg), both LPS and VPC01091.4, or vehicle alone (20% 2-hydroxypropyl-β-cyclodextrin in PBS). The volume injected was 200 μl and solutions were sterile-filtered (0.45 µm) prior to use. […] Mice were euthanized at 4 h, then blood was collected via cardiac puncture and anticoagulated with K2EDTA. […] The lungs were dissected, coarsely homogenized, and partitioned into separate samples for RNA extraction and mass spectrometry analysis. Samples to be used for RNA were stored at −20°C in RNAlater Stabilization Solution (AM7021; Thermo Fisher Scientific) while samples for use in mass spectrometry were flash-frozen in liquid nitrogen. Whole brains were physically dissected, coarsely homogenized, and stored for later processing as with the lung tissue. 10 μl of each whole blood sample was reserved for mass spectrometry analysis, 15 μl was used to obtain lymphocyte counts with a Hematology Analyzer (Heska Element HT5), and the remainder was used to produce plasma through centrifugation at 2,000 × g for 15 min at 4°C. Plasma cytokines were then measured using a multiplex mouse proinflammatory cytokine panel performed by the University of Virginia Flow Cytometry Core (RRID: SCR_017829). Cytokine values beyond the limit of detection (LOD) are reported as the LOD value. Tissue RNA was isolated from preserved samples using 30 min of automated homogenization at 30 Hz with 5-mm ball-bearings in RLT Plus Lysis Buffer (TissueLyser II; Qiagen); RNA was then isolated using a RNeasy Plus Micro Kit (74134; Qiagen). Whole-tissue cytokine expression changes were then measured using qRT-PCR as with ex vivo cell culture experiments. For the lethal dose model, mice were injected with LPS (25 mg/kg), both LPS and VPC01091.4, or vehicle alone (20% 2-hydroxypropyl-β-cyclodextrin in PBS). Symptoms were scored according to a standardized clinical score sheet that assessed conjunctivitis, lethargy, degradation in hair grooming behavior, stool changes, and facial grimace (Table 1). Mice that lost >20% of their starting body weight or received a clinical score of 8 or greater were euthanized.

[4] = system: LPS-induced endotoxemia in mice; test: Lethal dose (LD50) LPS mouse model; format: in vivo; conditions: LD50 LPS + 30 mg/kg
[5] = LPS 1 mg/kg + 30 mg/kg i.p., 4 h, vs LPS
[6] = whole-brain qRT-PCR, LPS 1 mg/kg + 30 mg/kg i.p., 4 h, vs LPS

CCCCCCCCc1ccc([C@@H]2CC[C@@](N)(CO)C2)cc1 [VPC01091.4, ((1S,3R)-1-amino-3-(4-octylphenyl)cyclopentyl)methanol]
Lymphopenia when administered to mice [1]: do not evoke lymphopenia | LPS-stimulated IL-1β gene expression ([2]; 5 µM pretreatment): almost completely abrogated | LPS-stimulated IL-1β gene expression ([2]; 10 µM pretreatment): almost completely abrogated | Tolerability in mice ([3]; 30 mg/kg i.p.): well-tolerated | Absolute lymphocyte counts ([3]; 30 mg/kg i.p., 4 h, between treatment groups): no significant differences | Plasma IL-10 ([3]; LPS 1 mg/kg + 30 mg/kg i.p., 4 h): higher levels | Plasma IFNγ [3, 5]: significantly suppressed | Plasma IL-1β [3, 5]: significantly suppressed | Plasma TNFα [3, 5]: significantly suppressed | Brain expression of CCL4 [3, 6]: significantly suppressed | Brain expression of IL-1β [3, 6]: significantly suppressed | Brain expression of IL-6 [3, 6]: significantly suppressed | Brain expression of TNFα [3, 6]: significantly suppressed | Lung expression of IL-6 ([3]; whole-lung qRT-PCR, LPS 1 mg/kg + 30 mg/kg i.p., 4 h, vs LPS): non-significantly lower | Survival rate ([4]; 132 h, LPS-only 50%, control 100%, P = 0.127): 83.33% | Clinical scores (symptoms) ([4]; vs LPS only, 132 h): significantly reduced at a number of timepoints | Weight change from baseline ([4]; vs LPS only, after first 48 h): recovering at a higher nadir and at an earlier timepoint
